The text below walks through data of patent US20230286955A1, “INHIBITORS OF THEM1” (Cornell University, priority 2022, published 2023).

The subject of series [1] is primary brown adipocytes cultured from A-Them1Tg mice. The series is described as follows: Oxygen consumption rates (OCR) in primary brown adipocytes. The conditions noted are these: compounds at their in vitro IC50 concentrations, 30 min, NE 1 μM; vs wild type (DMSO). Type of series: cell-based, mouse. On the procedure: Primary brown adipocytes from 4- to 6-w old wild type and A-Them1Tg mice were isolated, cultured and differentiated as described (Okada et al., 2016). In brief, BAT tissues harvested from 5- to 7-w old mice were pooled, minced and digested with collagenase B (Sigma-Aldrich; St. Louis, MO), and dispersed in growth medium [DMEM/F12 containing 4.5 g/L glucose, 0.1 mM pyruvate, 10 mM HEPES (Thermo Fisher; Waltham, MA) supplemented with 1% penicillin/streptomycin, 1% GlutaMAX (Thermo Fisher; Waltham, MA) and 20% fetal bovine serum]. […] Upon achieving confluence, pre-adipocytes were induced to differentiate for 8 d by culturing for the first 48 h in differentiation medium [DMEM/F12 containing 4.5 g/L glucose, 0.1 mM pyruvate, 10 mM HEPES (Thermo Fisher; Waltham, MA) supplemented with 1% penicillin/streptomycin, 1% GlutaMAX (Thermo Fisher; Waltham, MA), 10% fetal bovine serum, bovine insulin (5 μg/mL; Thermo Fisher; Waltham, MA) and rosiglitazone (1 μM; Sigma Aldrich; St. Louis, MO)] supplemented with dexamethasone (5 μM; Sigma Aldrich; St. Louis, MO) and 3-isobutyl-1-methylxanthine (0.5 mM; Sigma Aldrich; St. Louis, MO) and differentiation medium thereafter. On differentiation d 6 to 8, the adipocyte differentiation media was supplemented with L-(−)-norepinephrine (+) bitartrate (Calbiochem; EMD Millipore; Billerica, MA). Primary brown adipocytes were maintained in a cell culture incubator at 37° C. with 5% CO2.
In primary brown adipocytes on d 8 of differentiation, values of OCR were measured in the presence or absence of compounds using a Seahorse XF96 extracellular flux analyzer (Agilent Technologies; Santa Clara, CA). […] OCR values were measured before and after the exposure of cells to NE (1 μM) and normalized with total live cell count calculated through staining with NucRed Live probe (Thermo Fisher; Waltham, MA) measured at 715 nm emission and 623 nm excitation using a SpectraMax i3X plate reader (Molecular Devices; San Jose; CA).

The target in a further series is full-length human Acot12 (Homo sapiens, UniProt Q8WYK0). The series is described as follows: biochemical.
The next series in a line: in vitro. The following applies: C57BL/6, mouse, primary brown adipocytes.
A further series has as its target T1, recombinant human Them1 (Homo sapiens, UniProt Q8WXI4).
T1 construct: Reaction labeling recombinant full-length Them1; made in house; host or cells: E. coli Shuffle T7
T1 sequence (Q8WXI4 14-594 isoform Q8WXI4-2 limits assumed): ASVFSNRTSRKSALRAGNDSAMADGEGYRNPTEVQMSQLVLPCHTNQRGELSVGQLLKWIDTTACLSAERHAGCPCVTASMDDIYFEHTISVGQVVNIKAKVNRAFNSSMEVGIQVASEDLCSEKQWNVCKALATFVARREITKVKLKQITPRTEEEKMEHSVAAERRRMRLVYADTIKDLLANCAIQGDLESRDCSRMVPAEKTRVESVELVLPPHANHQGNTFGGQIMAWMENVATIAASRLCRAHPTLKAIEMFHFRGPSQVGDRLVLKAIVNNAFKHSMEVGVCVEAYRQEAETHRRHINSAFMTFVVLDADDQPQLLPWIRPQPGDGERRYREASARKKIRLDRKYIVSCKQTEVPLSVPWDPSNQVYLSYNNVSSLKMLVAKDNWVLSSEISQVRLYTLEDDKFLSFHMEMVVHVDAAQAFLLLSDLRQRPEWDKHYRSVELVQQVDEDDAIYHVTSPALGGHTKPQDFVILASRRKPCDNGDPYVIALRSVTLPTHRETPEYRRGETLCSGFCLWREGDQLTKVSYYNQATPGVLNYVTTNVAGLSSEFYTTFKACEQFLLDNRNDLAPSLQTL
The series is described as follows: Acot activity assay (fluorometric, C14-CoA), inhibition of Them1. The conditions noted are these: in words. Type of series: biochemical. On the procedure: Human Them1 consists of two splice variants (Them1a and Them1b) that are distinguished by an additional 13 amino acids at the C-terminus of the ‘a’ isoform (Adams et al., 2001). […] Sufficient quantities of recombinant Them1 required for the HTS were obtained as a service of the University of Georgia Bioexpression and Fermentation Core Facility (Athens, GA). […] Purity of recombinant Them1 was analyzed by SDS-PAGE followed by Coomassie Brilliant Blue staining. The concentration of recombinant Them1 was determined according to the molar extinction coefficient at 280 nm, which was calculated based on the amino acid sequence (www.expasy.org). Single use aliquots of recombinant Them1 were stored at −80° C. until use to prevent protein precipitation during purification. The pH values of all buffers were adjusted to remain at least two units removed from the pI of recombinant Them1.

In a further series the target is T2, full-length Them1 (Homo sapiens, UniProt Q8WXI4).
T2 sequence (Q8WXI4 14-594 isoform Q8WXI4-2 limits assumed): T1 sequence (Q8WXI4 14-594 isoform Q8WXI4-2 limits assumed)
The series is described as follows: Microscale thermophoresis binding, full-length Them1. The conditions noted are these: in words. Background: Microscale thermophoresis detects binding through changes in fluorescence in a small temperature gradient.

For another series, the target named is T3, Them1-ΔSTART (Homo sapiens, UniProt Q8WXI4).
T3 sequence (Q8WXI4 43-329 isoform Q8WXI4-2 limits assumed): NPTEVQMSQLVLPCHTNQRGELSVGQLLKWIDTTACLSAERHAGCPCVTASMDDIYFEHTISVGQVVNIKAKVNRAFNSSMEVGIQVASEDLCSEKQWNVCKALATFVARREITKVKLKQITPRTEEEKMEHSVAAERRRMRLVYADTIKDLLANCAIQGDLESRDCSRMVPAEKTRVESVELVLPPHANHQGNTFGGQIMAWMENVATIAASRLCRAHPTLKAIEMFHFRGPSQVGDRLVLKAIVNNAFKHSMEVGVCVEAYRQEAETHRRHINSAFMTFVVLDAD
The series is described as follows: Microscale thermophoresis binding, Them1-ΔSTART. The conditions noted are these: for Kd: read-out: Kd, Thioesterase domains (Them1-ΔSTART ), MST, 100 nM labeled protein, 22° C.; for binding to Them1-ΔSTART: in words.

The next series addresses T4, Them1 START domain (Homo sapiens, UniProt Q8WXI4).
T4 sequence (Q8WXI4 339-594 isoform Q8WXI4-2): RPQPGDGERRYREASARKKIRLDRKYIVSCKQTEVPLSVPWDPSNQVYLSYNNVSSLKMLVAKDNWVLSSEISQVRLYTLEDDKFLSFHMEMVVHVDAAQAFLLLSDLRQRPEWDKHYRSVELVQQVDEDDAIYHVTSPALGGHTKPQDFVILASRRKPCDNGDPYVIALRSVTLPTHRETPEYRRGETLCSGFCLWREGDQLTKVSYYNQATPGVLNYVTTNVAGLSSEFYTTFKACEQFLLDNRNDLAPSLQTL
The series is described as follows: Microscale thermophoresis binding, START domain. The following applies: in words.

Sequence of full-length human Acot12 (Q8WYK0 whole entry): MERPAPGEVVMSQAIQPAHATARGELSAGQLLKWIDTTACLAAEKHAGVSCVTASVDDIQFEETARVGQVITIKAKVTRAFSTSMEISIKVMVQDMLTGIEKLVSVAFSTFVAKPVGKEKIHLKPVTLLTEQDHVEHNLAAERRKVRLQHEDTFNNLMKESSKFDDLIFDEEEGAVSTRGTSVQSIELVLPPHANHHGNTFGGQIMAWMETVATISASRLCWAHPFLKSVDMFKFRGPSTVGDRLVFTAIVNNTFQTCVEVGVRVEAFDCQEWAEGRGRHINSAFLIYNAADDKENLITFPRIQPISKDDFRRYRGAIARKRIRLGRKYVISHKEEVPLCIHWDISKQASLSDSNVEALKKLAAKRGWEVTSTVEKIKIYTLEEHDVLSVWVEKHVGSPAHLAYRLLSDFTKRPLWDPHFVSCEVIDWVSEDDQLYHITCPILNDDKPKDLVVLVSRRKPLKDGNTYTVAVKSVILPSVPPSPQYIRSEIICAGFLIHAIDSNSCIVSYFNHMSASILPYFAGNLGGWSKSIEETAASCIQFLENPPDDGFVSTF
From the text for Them1 START domain: A synthetic gene encoding the START domain was cloned into a pNIC28-Bsa4 bacterial expression vector (Novagen, EMD Biosciences; Madison, WI), which introduced an in-frame N-terminal His6 fusion containing a tobacco etch virus protease cleavage site to facilitate tag removal. The pNIC28-Bsa4-START domain plasmid was co-transformed into E. coli BL21 (DE3) (New England Biolabs; Ipswich, MA) competent cells with a pG-Tf2 vector (encoding groES-gorEL-tig chaperones) and then grown to an A600 of 0.5-0.7 in terrific broth. Under conditions of shaking (250 rpm) at 18° C., chaperones were induced by the addition of 5 ng/mL tetracycline HCl for 60 min followed by START domain induction upon the addition of 0.5 mM isoproyl β-D-thiogalactoside for ˜18 h. The bacteria were harvested by centrifugation, and then lysed by sonication with 20 mM Tris-Cl (pH 7.4), 500 mM NaCl, 25 mM imidazole, 5% glycerol, lysozyme, Dnase A, 0.1% Triton X-100, 5 mM β-mercaptoethanol and 100 μM phenylmethylsulfonyl fluoride. Following centrifugation of the bacterial lysate, recombinant START was purified by FPLC using a His affinity column (HisTrap HP column; GE Healthcare; Waukesha, WI). The soluble fraction containing recombinant START was applied to the column after equilibration with 20 mM Tris-Cl (pH 7.4), 500 mM NaCl, 25 mM imidazole and 5% glycerol, and then washed with the same buffer. Recombinant START was eluted from the HisTrap HP column using 20 mM Tris-Cl (pH 7.4), 500 mM NaCl, 500 mM imidazole and 5% glycerol followed by tobacco etch virus protease-mediated His-tag cleavage at 4° C. overnight with simultaneous dialysis into 20 mM Tris-Cl (pH 7.4), 500 mM NaCl and 5% glycerol. Recombinant START was further purified using a Superdex column (HiLoad 16/60 Superdex 75 column; GE Healthcare; Waukesha, WI) in 20 mM Tris-Cl (pH 7.4), 500 mM NaCl and 5% glycerol. Assessment of purity, protein concentration and storage of single use aliquots of recombinant START were performed as described above for recombinant Them1.
Reaction labeling recombinant full-length Them1, Them1l-ΔSTART, START or Acot12 with Monolith RED-Tris-NTA (NanoTemper Technologies; San Francisco, CA) were performed according to the manufacturer's instructions in buffer containing PBS plus 0.5% Tween-20 for 60 min at 22° C. with a molar dye: protein ratio=1:1. […] Working concentrations of compounds were prepared by diluting in microscale thermophoresis buffer. […] Fluorescence was measured using a Monolith NT.115 instrument (NanoTemper Technologies; San Francisco, CA) at 22° C. with instrument parameters adjusted to 40% LED power and medium microscale thermophoresis power. […]
Method for Them1-ΔSTART: (§1) Data represent the mean (s.e.m.) of triplicate determinations. Where not visible, error bars are contained within the symbol sizes.
(§2) Reaction labeling recombinant full-length Them1, Them1l-ΔSTART, START or Acot12 with Monolith RED-Tris-NTA (NanoTemper Technologies; San Francisco, CA) were performed according to the manufacturer's instructions in buffer containing PBS plus 0.5% Tween-20 for 60 min at 22° C. with a molar dye: protein ratio=1:1. […] Working concentrations of compounds were prepared by diluting in microscale thermophoresis buffer. Reactions consisting of 100 nM of fluorescently labeled recombinant protein (full-length Them1, Them1-ΔSTART, START or Acot12) and compounds were loaded onto standard Monolith NT.115 Capillaries (NanoTemper Technologies; San Francisco, CA). Fluorescence was measured using a Monolith NT.115 instrument (NanoTemper Technologies; San Francisco, CA) at 22° C. with instrument parameters adjusted to 40% LED power and medium microscale thermophoresis power. Data were fitted by non-linear regression in GraphPad Prism (GraphPad Software; San Diego, CA).
Method for full-length Them1: as §1, §2
Method for full-length human Acot12: as §2
Method for in vitro: Cytotoxicities of compounds were determined using a CellTiter-Glo® Luminescent Cell Viability Assay, which measures concentrations of ATP liberated from viable cells (Promega; Madison, WI). […] Tamoxifen (50 μM) was used as a (+) control. CellTiter-Glo reagent (10 μL) was added to each well and incubated on an orbital shaker for 10 min at 22° C. to induce cell lysis and stabilize the luminescent signal. Relative luminescent units (RLU) were determined using a NEO plate reader (BioTek, Winooski, VT).

Broadly, the Kd is the constant that tells how readily two partners part at equilibrium. On to `Cc1[nH]c2ccccc2c1C(c1cccs1)N1CCN(Cc2ccccc2)CC1` (centres unmarked) [3-((4-benzylpiperazin-1-yl)(thiophen-2-yl)methyl)-2-methyl-1H-indole], for which the “OCR in A-Them1Tg brown adipocytes, reversal of Them1 suppression” value (“OCR in A-Them1Tg brown adipocytes” below) in series [1] is given as “reversed the suppressive effects of Them1 on values of OCR”. Besides, on full-length human Acot12, the Kd is greater than 125 µM. Further, the CC50 at 48 h in “in vitro” was greater than 125 µM.

`Cc1[nH]c2ccccc2c1C(c1cccs1)N1CCCC1` (centres unmarked) [Compound U2] had a CC50 at 48 h in the series “in vitro” greater than 125 µM.

For the molecule `Cc1[nH]c2ccccc2c1C(c1cccs1)N1CCN(C)CC1` (centres unmarked) [Compound U3], the CC50 at 48 h in the series “in vitro” is greater than 125 µM.

`Cc1[nH]c2ccccc2c1C(c1cccs1)N1CCN(c2ccccc2)CC1` (centres unmarked) [Compound U4] showed a CC50 at 48 h in the series “in vitro” greater than 125 µM. Also, on recombinant human Them1, the “IC50 value compared to the parent U1 compound” value is recorded as “comparable”. Also, the “Kd / binding affinity to full-length Them1 compared to the parent U1 compound” value at full-length Them1 is on record as “comparable”.

The molecule `Cc1[nH]c2ccccc2c1C(c1cccs1)N1CCOCC1` (centres unmarked) [Compound U5] came in with a CC50 at 48 h in “in vitro” greater than 125 µM.

For the molecule `Cc1[nH]c2ccccc2c1C(c1cccs1)N1CCCCC1` (centres unmarked) [Compound U6], the “OCR in A-Them1Tg brown adipocytes” value in series [1] is listed as “reversed the suppressive effects of Them1 on values of OCR”. Further, the Kd at full-length human Acot12 and at Them1-ΔSTART was greater than 125 µM each time. The molecule also had a CC50 at 48 h in the series “in vitro” greater than 125 µM.

As for `CCOC(=O)C1CCN(C(c2cccs2)c2c(C)[nH]c3ccccc23)CC1` (centres unmarked) [Compound U7, ethyl 1-((2-methyl-1H-indol-3-yl)(thiophen-2-yl)methyl)piperidine-4-carboxylate], the Kd at full-length human Acot12 and at Them1-ΔSTART was greater than 125 µM each time. This molecule yielded a CC50 at 48 h in the series “in vitro” greater than 125 µM. The “binding to Them1-ΔSTART” value at Them1-ΔSTART is given as “did not bind”. The “binding affinity to the START domain compared to the parent U1 compound” value at Them1 START domain was “comparable”. For the same molecule, the “Kd / binding affinity to full-length Them1 compared to the parent U1 compound” value on full-length Them1 is “comparable”.

`Cc1[nH]c2ccccc2c1C(c1cccs1)N1CCNCC1` (centres unmarked) [Compound U9, 2-methyl-3-(piperazin-1-yl(thiophen-2-yl)methyl)-1H-indole]: the “OCR in A-Them1Tg brown adipocytes” value in series [1] was “reversed the suppressive effects of Them1 on values of OCR”. Further, the Kd at full-length human Acot12 and at Them1-ΔSTART was greater than 125 µM in each case. In addition, the CC50 at 48 h in “in vitro” was greater than 125 µM.

Take `CC(=O)N1CCN(C(c2cccs2)c2c(C)[nH]c3ccccc23)CC1` (centres unmarked) [Compound U10, 1-(4-((2-methyl-1H-indol-3-yl)(thiophen-2-yl)methyl)piperazin-1-yl)ethan-1-one]: the Kd at full-length human Acot12 and at Them1-ΔSTART was greater than 125 µM in each case. This molecule registered a CC50 at 48 h in the series “in vitro” greater than 125 µM.

Take `Cc1[nH]c2ccccc2c1C(c1cccs1)N1CCN(C(=O)c2ccccc2)CC1` (centres unmarked) [Compound U13, (4-((2-methyl-1H-indol-3-yl)(thiophen-2-yl)methyl)piperazin-1-yl)(phenyl)methanone]: the Kd on full-length human Acot12 and at Them1-ΔSTART was greater than 125 µM each time. Besides, in the series “in vitro”, the CC50 at 48 h was greater than 125 µM. Moreover, the “binding to Them1-ΔSTART” value on Them1-ΔSTART is “did not bind”. Also, the “binding affinity to the START domain compared to the parent U1 compound” value at Them1 START domain is on record as “comparable”. For the same molecule, on full-length Them1, the “Kd / binding affinity to full-length Them1 compared to the parent U1 compound” value is reported as “comparable”.

On full-length human Acot12, `CCOC(=O)N1CCN(C(c2ccc(C)s2)c2c(C)[nH]c3ccccc23)CC1` (centres unmarked) [Compound U16, ethyl 4-((2-methyl-1H-indol-3-yl)(5-methylthiophen-2-yl)methyl)piperazine-1-carboxylate] showed a Kd greater than 125 µM. Besides, the CC50 at 48 h in “in vitro” is greater than 125 µM. Besides, at Them1-ΔSTART, the “binding to Them1-ΔSTART” value was “did not bind” and the Kd is greater than 125 µM. In addition, the “binding affinity to the START domain compared to the parent U1 compound” value at Them1 START domain is recorded as “comparable”. At full-length Them1, the “Kd / binding affinity to full-length Them1 compared to the parent U1 compound” value is “comparable”.

For the molecule `Cc1[nH]c2ccccc2c1C(c1cccs1)N1CCN(C(=O)OCc2ccccc2)CC1` (centres unmarked) [benzyl 4-((2-methyl-1H-indol-3-yl)(thiophen-2-yl)methyl)piperazine-1-carboxylate], the “OCR in A-Them1Tg brown adipocytes” value in series [1] is on record as “remained suppressed”. Also, on full-length human Acot12, the Kd is greater than 125 µM.

As for `CCOC(=O)N1CCN(C(c2ccccc2)c2c(C)[nH]c3ccccc23)CC1` (centres unmarked) [ethyl 4-((2-methyl-1H-indol-3-yl)(phenyl)methyl)piperazine-1-carboxylate], the Kd at full-length human Acot12 was greater than 125 µM.
